Data published in PubChem BioAssay (NCI).
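Growth conditions: 96-well plates. Treatment: test compound, 48 hours, 5 concentrations. Analysis: linear interpolation between bracketing concentrations; unreached endpoints set to highest concentration. At the TGI there is no net growth.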

Columns and labels:
Assay in all cases: DTP human tumour cell line panel, 48 h
786-0 renal = system: 786-0 renal
A498 renal = system: A498 renal
A549 NSCLC = system: A549 NSCLC
ACHN renal = system: ACHN renal
CAKI-1 renal = system: CAKI-1 renal
CCRF-CEM leukemia = system: CCRF-CEM leukemia
COLO 205 colon = system: COLO 205 colon
DLD-1 colon = system: DLD-1 colon
DMS 114 small cell lung = system: DMS 114 small cell lung
DMS 273 small cell lung = system: DMS 273 small cell lung
EKVX NSCLC = system: EKVX NSCLC
HCC-2998 colon = system: HCC-2998 colon
HCT-116 colon = system: HCT-116 colon
HCT-15 colon = system: HCT-15 colon
HL-60(TB) leukemia = system: HL-60(TB) leukemia
HOP-18 NSCLC = system: HOP-18 NSCLC
HOP-62 NSCLC = system: HOP-62 NSCLC
HOP-92 NSCLC = system: HOP-92 NSCLC
HT29 colon = system: HT29 colon
IGROV1 ovarian = system: IGROV1 ovarian
K-562 leukemia = system: K-562 leukemia
KM12 colon = system: KM12 colon
KM20L2 colon = system: KM20L2 colon
LOX IMVI melanoma = system: LOX IMVI melanoma
LXFL 529 NSCLC = system: LXFL 529 NSCLC
M14 melanoma = system: M14 melanoma
M19-MEL melanoma = system: M19-MEL melanoma
MALME-3M melanoma = system: MALME-3M melanoma
MOLT-4 leukemia = system: MOLT-4 leukemia
NCI-H226 lung = system: NCI-H226 lung
NCI-H23 lung = system: NCI-H23 lung
NCI-H460 lung = system: NCI-H460 lung
NCI-H522 lung = system: NCI-H522 lung
OVCAR-3 ovarian = system: OVCAR-3 ovarian
OVCAR-4 ovarian = system: OVCAR-4 ovarian
OVCAR-5 ovarian = system: OVCAR-5 ovarian
OVCAR-8 ovarian = system: OVCAR-8 ovarian
RPMI-8226 leukemia = system: RPMI-8226 leukemia
RXF 393 renal = system: RXF 393 renal
RXF-631 renal = system: RXF-631 renal
SF-268 CNS = system: SF-268 CNS
SF-295 CNS = system: SF-295 CNS
SF-539 CNS = system: SF-539 CNS
SK-MEL-2 melanoma = system: SK-MEL-2 melanoma
SK-MEL-28 melanoma = system: SK-MEL-28 melanoma
SK-MEL-5 melanoma = system: SK-MEL-5 melanoma
SN12C renal = system: SN12C renal
SNB-19 CNS = system: SNB-19 CNS
SNB-75 CNS = system: SNB-75 CNS
SNB-78 CNS = system: SNB-78 CNS
SR leukemia = system: SR leukemia
SW-620 colon = system: SW-620 colon
TK-10 renal = system: TK-10 renal
U251 CNS = system: U251 CNS
UACC-257 melanoma = system: UACC-257 melanoma
UACC-62 melanoma = system: UACC-62 melanoma
UO-31 renal = system: UO-31 renal
SK-OV-3 ovarian = system: SK-OV-3 ovarian

Measured: TGI

O=C(C[n+]1ccccc1)N/N=C(/CCC(=O)N(Cc1ccccc1)Cc1ccccc1)CC(=O)c1ccccc1
> 100 µM: 786-0 renal | A498 renal | A549 NSCLC | ACHN renal | CAKI-1 renal | CCRF-CEM leukemia | COLO 205 colon | DLD-1 colon | DMS 114 small cell lung | DMS 273 small cell lung | EKVX NSCLC | HCC-2998 colon | HCT-116 colon | HCT-15 colon | HL-60(TB) leukemia | HOP-18 NSCLC | HOP-62 NSCLC | HOP-92 NSCLC | HT29 colon | IGROV1 ovarian | K-562 leukemia | KM12 colon | KM20L2 colon | LOX IMVI melanoma | LXFL 529 NSCLC | M14 melanoma | M19-MEL melanoma | MALME-3M melanoma | MOLT-4 leukemia | NCI-H226 lung | NCI-H23 lung | NCI-H460 lung | NCI-H522 lung | OVCAR-3 ovarian | OVCAR-4 ovarian | OVCAR-5 ovarian | OVCAR-8 ovarian | RPMI-8226 leukemia | RXF 393 renal | RXF-631 renal | SF-268 CNS | SF-295 CNS | SF-539 CNS | SK-MEL-2 melanoma | SK-MEL-28 melanoma | SK-MEL-5 melanoma | SN12C renal | SNB-19 CNS | SNB-75 CNS | SNB-78 CNS | SR leukemia | SW-620 colon | TK-10 renal | U251 CNS | UACC-257 melanoma | UACC-62 melanoma | UO-31 renal

CCCCCCCCCCCCSC(=S)c1c(C)[nH]n(-c2ccccc2)c1=O
29.5 µM: UACC-257 melanoma
21.5 µM: HCC-2998 colon
23.2 µM: CCRF-CEM leukemia
35.6 µM: SF-295 CNS
24.4 µM: HL-60(TB) leukemia
35.8 µM: NCI-H23 lung
39.8 µM: MALME-3M melanoma
36.6 µM: HT29 colon
38.9 µM: UO-31 renal
25.9 µM: UACC-62 melanoma
> 50 µM: 786-0 renal | A498 renal | A549 NSCLC | ACHN renal | CAKI-1 renal | COLO 205 colon | DLD-1 colon | EKVX NSCLC | HCT-15 colon | HOP-18 NSCLC | HOP-92 NSCLC | IGROV1 ovarian | K-562 leukemia | LOX IMVI melanoma | LXFL 529 NSCLC | M14 melanoma | NCI-H226 lung | OVCAR-4 ovarian | OVCAR-5 ovarian | OVCAR-8 ovarian | RPMI-8226 leukemia | RXF-631 renal | SF-268 CNS | SK-MEL-28 melanoma | SK-OV-3 ovarian | SN12C renal | SNB-19 CNS | SNB-78 CNS | SW-620 colon | TK-10 renal | U251 CNS
15.9 µM: SK-MEL-5 melanoma
24.5 µM: RXF 393 renal
46.1 µM: MOLT-4 leukemia | OVCAR-3 ovarian
15.6 µM: HOP-62 NSCLC
39.5 µM: KM20L2 colon
28.4 µM: DMS 114 small cell lung
33.9 µM: SF-539 CNS
